Data as given in paper PMC5336524 (Drug testing and analysis, 2016).
Where two headings read alike, the source gives them in different places.

Assays:
5-HT transporters (SERT) = 5-HT transporters (SERT) (Rattus norvegicus, UniProt P31652); test: [3H]5-HT release via SERT from rat brain synaptosomes; type: biochemical
[1] = target: T1, norepinephrine transporters (NET) (Rattus norvegicus, UniProt Q63380); test: [3H]norepinephrine uptake inhibition in rat brain synaptosomes; type: biochemical
[2] = target: T2, dopamine transporters (DAT) (Rattus norvegicus, UniProt P23977); test: [3H]dopamine uptake inhibition in rat brain synaptosomes; type: biochemical; conditions: 5 nM [3H]dopamine, mean ± SD, n = 3, inactive = no inhibition at 10,000 nM; for IC50: [3H]DA uptake via DAT IC50, rat brain synaptosomes
[3] = target: T1, norepinephrine transporters (NET); test: [3H]MPP+ release via NET from rat brain synaptosomes; type: biochemical; conditions: for [3H]MPP+ release via NET EC50: rat brain synaptosomes, 9 nM [3H]MPP+, mean ± SD, n = 3, inactive = efficacy less than 33% of maximal release
[4] = target: serotonin transporters (SERT) (Rattus norvegicus, UniProt P31652); test: [3H]serotonin uptake inhibition in rat brain synaptosomes; type: biochemical
[5] = target: T2, dopamine transporters (DAT); test: [3H]MPP+ release via DAT from rat brain synaptosomes; type: biochemical; conditions: for [3H]MPP+ release via DAT EC50: rat brain synaptosomes, 9 nM [3H]MPP+, mean ± SD, n = 3, inactive = efficacy less than 33% of maximal release
[6] = Stability of N-methoxymephedrone; type: physicochemical; conditions: solid; over time converts from a colourless solid to a brown solid; hygroscopic
[7] = [3H]5-HT release via SERT EC50, rat brain synaptosomes, 5 nM [3H]5-HT, mean ± SD, n = 3, inactive = efficacy less than 33% of maximal release
[8] = ratio of uptake IC50 values versus mexedrone

T2 sequence (P23977 whole entry): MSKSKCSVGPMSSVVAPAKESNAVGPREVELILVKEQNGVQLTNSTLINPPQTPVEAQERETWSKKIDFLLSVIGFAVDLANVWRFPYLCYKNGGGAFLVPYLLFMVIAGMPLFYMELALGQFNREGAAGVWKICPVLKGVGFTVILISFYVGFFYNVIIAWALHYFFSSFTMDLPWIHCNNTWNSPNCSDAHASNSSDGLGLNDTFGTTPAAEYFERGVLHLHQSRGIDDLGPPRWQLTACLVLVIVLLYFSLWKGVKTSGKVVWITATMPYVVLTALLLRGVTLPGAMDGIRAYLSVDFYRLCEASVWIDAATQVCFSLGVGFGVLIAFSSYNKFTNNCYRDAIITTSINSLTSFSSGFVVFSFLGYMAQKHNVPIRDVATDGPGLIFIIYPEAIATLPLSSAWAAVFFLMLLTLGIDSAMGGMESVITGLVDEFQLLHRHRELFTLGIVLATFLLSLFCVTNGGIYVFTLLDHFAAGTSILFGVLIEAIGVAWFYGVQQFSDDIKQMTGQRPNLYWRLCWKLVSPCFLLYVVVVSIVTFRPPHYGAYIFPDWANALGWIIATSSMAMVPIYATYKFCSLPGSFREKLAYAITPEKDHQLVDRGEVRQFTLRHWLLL
Sequence of serotonin transporters (SERT) (P31652 whole entry): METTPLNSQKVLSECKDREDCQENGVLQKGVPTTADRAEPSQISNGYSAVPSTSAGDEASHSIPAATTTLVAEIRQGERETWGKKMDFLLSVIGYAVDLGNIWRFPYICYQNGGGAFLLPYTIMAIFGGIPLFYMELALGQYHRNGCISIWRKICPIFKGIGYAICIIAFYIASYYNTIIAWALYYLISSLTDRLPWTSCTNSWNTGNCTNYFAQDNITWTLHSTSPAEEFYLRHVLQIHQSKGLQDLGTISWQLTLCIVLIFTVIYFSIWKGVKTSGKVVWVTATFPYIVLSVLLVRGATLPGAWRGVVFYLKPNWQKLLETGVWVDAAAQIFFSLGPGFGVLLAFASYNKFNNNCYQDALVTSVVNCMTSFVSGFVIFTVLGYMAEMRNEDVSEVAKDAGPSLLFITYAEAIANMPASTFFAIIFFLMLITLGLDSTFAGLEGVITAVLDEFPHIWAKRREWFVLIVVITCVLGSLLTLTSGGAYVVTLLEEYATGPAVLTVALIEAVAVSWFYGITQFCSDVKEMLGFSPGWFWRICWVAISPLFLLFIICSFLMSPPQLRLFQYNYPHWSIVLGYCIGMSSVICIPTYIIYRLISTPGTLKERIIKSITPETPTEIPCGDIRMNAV
Sequence of 5-HT transporters (SERT) (P31652 whole entry): as above
T1 sequence (Q63380 1-617): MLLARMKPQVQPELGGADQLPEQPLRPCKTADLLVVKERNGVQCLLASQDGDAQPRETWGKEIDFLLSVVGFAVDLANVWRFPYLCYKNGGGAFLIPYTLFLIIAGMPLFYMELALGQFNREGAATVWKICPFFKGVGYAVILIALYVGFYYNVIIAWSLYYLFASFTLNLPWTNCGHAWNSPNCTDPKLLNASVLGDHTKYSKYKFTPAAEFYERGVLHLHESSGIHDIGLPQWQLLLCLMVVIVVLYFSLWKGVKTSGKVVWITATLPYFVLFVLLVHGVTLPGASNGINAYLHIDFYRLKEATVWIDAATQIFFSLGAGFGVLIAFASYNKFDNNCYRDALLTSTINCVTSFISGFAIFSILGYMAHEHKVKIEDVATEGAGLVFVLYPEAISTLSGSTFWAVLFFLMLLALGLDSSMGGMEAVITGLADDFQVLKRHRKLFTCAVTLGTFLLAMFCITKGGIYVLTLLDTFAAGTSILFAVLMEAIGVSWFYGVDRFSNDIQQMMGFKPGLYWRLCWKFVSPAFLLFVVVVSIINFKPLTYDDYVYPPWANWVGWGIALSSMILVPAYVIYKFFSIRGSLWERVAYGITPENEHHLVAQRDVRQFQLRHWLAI

SMILES	EC50 (5-HT transporters (SERT); [7])	EC50 (5-HT transporters (SERT); releasing activity at SERT EC50, rat brain synaptosomes)	IC50 [1]	IC50 [2]	[3H]MPP+ release via NET EC50 [3]	IC50 [4]	[3H]MPP+ release via DAT EC50 [5]	EC50 (5-HT transporters (SERT))	fold more potent than mexedrone at NET (uptake inhibition) [1, 8]	EC50 [3]	fold more potent than mexedrone at SERT (uptake inhibition) [4, 8]	EC50 [5]	stability in crystalline form [6]	[3H]5-HT release via SERT EC50 (5-HT transporters (SERT); rat brain synaptosomes, 5 nM [3H]5-HT, mean ± SD, n = 3, inactive = efficacy less than 33% of maximal release)	[3H]NE uptake via NET IC50 ([1]; rat brain synaptosomes, 10 nM [3H]norepinephrine, mean ± SD, n = 3, inactive = no inhibition at 10,000 nM)	[3H]DA uptake via DAT IC50 ([2]; rat brain synaptosomes)	[3H]5-HT uptake via SERT IC50 ([4]; rat brain synaptosomes, 5 nM [3H]serotonin, mean ± SD, n = 3, inactive = no inhibition at 10,000 nM)
CNC(COC)C(=O)c1ccc(C)cc1 (stereo not shown) [Mexedrone, 3-Methoxy-2-(methylamino)-1-(4-methylphenyl)propan-1-one]	2520 ± 560 nM	2500 nM	8870 ± 3100 nM	6840 ± 1520 nM	inactive	5290 ± 1620 nM	inactive										
CON(C)C(C)C(=O)c1ccc(C)cc1 (stereo not shown) [N-Methoxymephedrone, 2-(Methoxy(methyl)amino)-1-(4-methylphenyl)propan-1-one]			3460 ± 728 nM	6090 ± 1620 nM		3330 ± 1130 nM		1040 ± 271 nM	2.6 fold	313 ± 51 nM	1.6 fold	666 ± 132 nM	unstable				
CNC(CCl)C(=O)c1ccc(C)cc1 (stereo not drawn) [α-Chloromethylmephedrone, 3-chloro-2-(methylamino)-1-(4-methylphenyl)propan-1-one]					inactive		inactive							inactive	inactive	inactive	inactive
CNC(C)C(=O)c1ccc(C)cc1 (stereo not shown) [Mephedrone, 2-(methylamino)-1-(4-methylphenyl)propan-1-one, reference compound]	163 ± 30 nM		494 ± 93 nM	1060 ± 85 nM		470 ± 7.6 nM				58 ± 7 nM		45 ± 6 nM					
